{"source": "patent US20250134875A1", "about": "“FORMULATIONS OF ALK-5 KINASE INHIBITORS AND USES THEREOF” (Thirona Bio, Inc., priority 2023, published 2025)", "origin": "cited, not measured here", "key": {"[1]": {"tested_on": "mouse fibroblasts and fat precursor cells", "conditions": "cited from earlier work"}, "[2]": {"tested_on": "fibroblasts derived from human PD plaque", "conditions": "cited from earlier work"}, "rat PD models": {"tested_on": "rat PD models", "conditions": "cited from earlier work"}, "[3]": {"tested_on": "TGF-β-induced expression of ACTA2, Col1a1 and Col3a1", "conditions": "3D culture model of DC-specimens; cited from earlier work"}, "mouse skin": {"tested_on": "mouse skin", "conditions": "cited from earlier work"}, "[4]": {"tested_on": "human outer root sheath cells", "conditions": "cited from earlier work"}, "A549 cells": {"tested_on": "A549 cells", "conditions": "cited from earlier work"}, "TNF": {"biological_target": "T1, TNF (Homo sapiens, UniProt P01375)", "T1 construct": "host or cells: Dupuytren's nodules of patients (in vivo, endogenous)", "T1 sequence (P01375 77-233 limits assumed)": "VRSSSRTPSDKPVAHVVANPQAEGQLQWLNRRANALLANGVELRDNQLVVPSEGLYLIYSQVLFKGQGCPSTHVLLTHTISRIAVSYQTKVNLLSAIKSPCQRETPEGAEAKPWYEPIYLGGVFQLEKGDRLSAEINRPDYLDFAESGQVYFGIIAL", "conditions": "cited from earlier work"}, "TGF-β": {"tested_on": "TGF-β", "conditions": "cited from earlier work"}}, "data": [{"molecule": "Cc1cccc(-c2nn(C(=S)Nc3ccccc3)cc2-c2ccnc3ccccc23)n1", "note": "[Formulation A83-01]", "values": [{"measurement": "Brown fat adipogenesis", "setting": "[1]", "value": "induced brown fat adipogenesis"}]}, {"molecule": "Cc1cccc(-c2[nH]c(Cc3cccc(C(N)=O)c3)nc2-c2ccc3nccnc3c2)n1", "note": "[IN-1130]", "values": [{"measurement": "TGF-β1-induced production of PAI-1, fibronectin, collagen 1 and collagen 4", "setting": "[2]", "value": "significantly reduced"}, {"measurement": "Curvature and fibrosis", "setting": "rat PD models", "value": "improved curvature and fibrosis"}]}, {"molecule": "Cc1cccc(-c2nn3c(c2-c2ccnc4ccc(C(N)=O)cc24)CCC3)n1", "note": "[LY2157299]", "values": [{"measurement": "Brown fat adipogenesis", "setting": "[1]", "value": "induced brown fat adipogenesis"}]}, {"molecule": "NC(=O)c1ccc(-c2nc(-c3ccc4c(c3)OCO4)c(-c3ccccn3)[nH]2)cc1", "note": "[SB-431542]", "values": [{"measurement": "TGF-β-induced expression of ACTA2, Col1a1 and Col3a1", "setting": "[3]", "value": "suppressed"}, {"measurement": "Brown fat adipogenesis", "setting": "[1]", "value": "induced brown fat adipogenesis"}]}, {"molecule": "Cc1csc(-c2[nH]cnc2-c2ccc3ncsc3c2)n1", "note": "[TP0427736]", "values": [{"measurement": "Average hair follicle length during transition from late anagen to catagen phase", "setting": "mouse skin; repeated topical application", "value": "suppressed the shortening"}, {"measurement": "Smad2 phosphorylation in mouse skin", "setting": "mouse skin; topical application", "value": "significantly decreased"}, {"measurement": "Growth inhibition of human outer root sheath cells", "setting": "[4]", "value": "decreased the growth inhibition"}, {"measurement": "Smad2/3 phosphorylation", "setting": "A549 cells", "value": "inhibited"}]}, {"molecule": "COc1ccc(/C=C/C(=O)Nc2ccccc2C(=O)O)cc1OC", "note": "[Tanilast]", "values": [{"measurement": "Brown fat adipogenesis", "setting": "[1]", "value": "induced brown fat adipogenesis"}]}, {"molecule": "adalimumab", "values": [{"measurement": "Phenotype of myofibroblasts", "setting": "TNF; Phase 2a trial, intranodular", "value": "downregulated the phenotype of myofibroblasts"}, {"measurement": "Nodule harness and size by ultrasound", "setting": "TNF; Phase 2b trial", "value": "decreased nodule harness and size"}]}, {"molecule": "fresolimumab: TGF-β neutralizing antibody which targets all three TGF-β isoforms", "values": [{"measurement": "Clinical skin disease (fibrosis), modified Rodnan skin score (MRSS)", "setting": "TGF-β; systemic sclerosis patients (N=15), 1 mg/kg twice or 5 mg/kg once, p=0.0002 within 3 weeks", "value": "dramatically reversed"}, {"measurement": "Pro-fibrotic TGF-β gene expression profiles in the skin", "setting": "TGF-β; systemic sclerosis patients", "value": "decreased"}, {"measurement": "Systemic side effects", "setting": "TGF-β; systemic sclerosis patients", "value": "significant systemic side effects, notably bleeding"}]}]}
